Here are results for 26 compounds from paper PMC3456874, “Fragment Screening at Adenosine-A3 Receptors in Living Cells Using a Fluorescence-Based Binding Assay” (Chemistry & Biology, 2012).

“And” between values parts separate entries of the source, which are not always exact repeats. Equal entries are not always repeated. Where two headings read alike, the source gives them in different places.

Assay [1] has as its target T1, human A3AR (Homo sapiens, UniProt P0DMS8).
T1 sequence (P0DMS8 1-318): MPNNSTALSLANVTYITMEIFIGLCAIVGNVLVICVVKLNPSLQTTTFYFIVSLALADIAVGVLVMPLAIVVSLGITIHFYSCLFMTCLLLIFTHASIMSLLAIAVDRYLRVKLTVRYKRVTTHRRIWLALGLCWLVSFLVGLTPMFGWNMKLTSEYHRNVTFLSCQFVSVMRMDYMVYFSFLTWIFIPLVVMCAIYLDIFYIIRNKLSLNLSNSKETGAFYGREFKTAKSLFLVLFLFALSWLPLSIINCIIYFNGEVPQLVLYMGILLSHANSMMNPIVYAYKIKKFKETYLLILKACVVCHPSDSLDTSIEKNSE
The assay can be described thus: High-content fluorescent ligand (CA200645) competition binding assay in live CHO CRE-SPAP cells expressing the A3AR. The conditions noted are these: for remaining binding at 1000 µM: read-out: % of CA200645 binding (% DMSO control).

Assay [2] addresses T2, human A1AR (Homo sapiens, UniProt P30542).
T2 sequence (P30542 1-326): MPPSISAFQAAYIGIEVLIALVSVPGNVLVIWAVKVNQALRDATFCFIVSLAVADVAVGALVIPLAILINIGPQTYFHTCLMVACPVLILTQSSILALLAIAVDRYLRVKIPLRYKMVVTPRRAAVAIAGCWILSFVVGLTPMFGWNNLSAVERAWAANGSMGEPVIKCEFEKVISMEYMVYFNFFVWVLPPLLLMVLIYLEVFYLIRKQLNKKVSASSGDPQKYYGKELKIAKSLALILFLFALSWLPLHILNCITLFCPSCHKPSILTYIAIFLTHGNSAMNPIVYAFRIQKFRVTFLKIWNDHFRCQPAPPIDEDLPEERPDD
The experiment in a line: High-content fluorescent ligand (CA200645) competition binding assay in live CHO-A1 cells. The conditions noted are these: for inhibition at 10 µM: read-out: inhibition of CA200645 binding at the A1AR; for A1 % inhibition (Table S3): top concentration of compound tested, quoted where less than 50% inhibition of total binding.

Assay [3] has as its target T1, human A3AR. The experiment in a line: cell-based.
For assay [4], the target named is T1, human A3AR. The experiment in a line: CRE-SPAP gene transcription assay (shift of NECA-mediated inhibition of forskolin-stimulated SPAP response).
The next assay concerns A3-YFP. The experiment in a line: A3-YFP receptor internalization (granularity analysis) in CHO A3-YFP cells.
Assay [5] has as its target T1, human A3AR.
Assay [6] addresses T2, human A1AR.
Assay [7] concerns the target T2, human A1AR. The experiment in a line: cell-based.
Where [8] appears, read: A3 pKi (Table S3), mean ± s.e.m.
Where [9] appears, read: pKi at the adenosine A3 receptor (Table S2), mean ± s.e.m from 3 separate experiments.

What is called Ki is the equilibrium dissociation constant of an inhibitor or competing ligand from its target. Low readings indicate higher affinity, high ones lower affinity. By inhibition is commonly meant the percentage by which the read-out fell short of the control. On to `O=C(Nc1ccccc1-c1nc2ccccc2[nH]1)c1cccs1` [Compound 12], for which the Ki on human A3AR [1] (setting [8]) is 0.257 µM. For the same compound, at human A1AR [2], the inhibition at 10 µM is less than 50% and the “A1 % inhibition (Table S3)” value stood at 47.9 ± 9.7%. For the compound `COc1ccc(NN=c2[nH]c3ccccc3[nH]c2=O)cc1` [Compound 3], the affinity on human A3AR [3] corresponds to a Ki of 2.63 µM. Turning to `Nc1nc(NCCc2ccc(O)cc2)nc2nc(-c3ccco3)nn12` [ZM 241385, reference compound], on human A3AR [4], the Kb was 0.407 µM. The inhibition constant (Ki) on human A3AR [3] is 0.182 µM. Consider `Nc1ccc(-c2nc3ccccc3[nH]2)cc1` [Compound 9], for which the inhibition at 100 µM on human A3AR [1] (read-out: % inhibition of CA200645 binding at A3AR) came to 41.2 ± 7.3%. For `CNC(=O)[C@H]1O[C@@H](n2cnc3c(NCc4cccc(I)c4)nc(Cl)nc32)[C@H](O)[C@@H]1O` [2-Cl IB-MECA], the “A3-YFP internalization / agonist action” value with A3-YFP is listed as “stimulated A3-YFP internalization”.

As for `COc1ccc(-n2nc3c(=O)[nH]c4ccccc4n3c2=O)cc1` [Compound 2], the Ki on human A3AR [3] is 0.0776 µM.

As to `Nc1ccc(C(F)(F)F)cc1N` [BTB 07340], on human A3AR [1] (setting [9]), the affinity, expressed as Ki, was 2.95 µM. Further, the remaining binding at 1000 µM on human A3AR [1] was 10.3%. With `CCNC(=O)[C@H]1O[C@@H](n2cnc3c(N)nc(NCCc4ccc(CCC(=O)O)cc4)nc32)[C@H](O)[C@@H]1O` [CGS 21680, reference compound], the “displacement of CA200645 binding” value on human A3AR [1] (A3AR, agonist competition curves) is “only partial displacement”. With `CCCCC#Cc1nc(NC)c2ncn([C@@H]3O[C@H](CO)[C@@H](O)[C@H]3O)c2n1` [HEMADO, reference compound], the “pIC50 for inhibition of CA200645 binding (agonists)” value at human A3AR [1] (A3AR, n = 4) was 7.23 ± 0.23. Further, the “A3-YFP internalization / agonist action” value in the assay on A3-YFP is listed as “stimulated A3-YFP internalization”.

On human A3AR [3], `Nc1cccc(-c2nc3ccccc3[nH]2)c1` [Compound 8] showed a Ki of 3.24 µM. `Nc1nc2c(cnn2CCc2ccccc2)c2nc(-c3ccco3)nn12` [SCH 58261, reference compound] showed a Ki at human A3AR [3] of 0.186 µM. Regarding `O=C(Nc1ccccc1-c1nc2ccccc2[nH]1)c1cccnc1` [Compound 10], the “fold increase in A3AR affinity compared to DP01095” value on human A3AR [1] is 3 fold. The compound also showed a Ki at human A3AR [1] (setting [8]) of 0.0977 µM. Also, at human A1AR [2], the inhibition at 10 µM was less than 50% and the “A1 % inhibition (Table S3)” value is on record as 38.9 ± 8.3%. `COc1ccc(-n2ccnc2)cc1` [Compound 6] gave a Ki on human A3AR [3] of 525 µM.

As for `Nc1ccccc1-c1nc2ccccc2[nH]1` [DP 01095], the remaining binding at 1000 µM at human A3AR [1] turned out to be 36.3%. The Ki at human A3AR [3] is 0.363 µM and 0.331 µM.

On human A3AR [3], `COc1ccc(NC(C)=O)cc1` [Compound 7] gave a Ki of 20.4 µM. Take `O=C(Nc1ccccc1-c1nc2ccccc2[nH]1)c1ccco1` [Compound 11]: the Ki on human A3AR [1] (setting [8]) was 0.166 µM. On human A1AR [2], the inhibition at 10 µM was less than 50% and the “A1 % inhibition (Table S3)” value is listed as 40.6 ± 7.3%. In the case of `CCCn1c(=O)[nH]c2nc(-c3ccc(S(=O)(=O)N4CCN(c5ccc(Cl)cc5)CC4)cc3)[nH]c2c1=O` [PSB 603], the Ki was 0.0562 µM at human A3AR [5] and 0.0417 µM at human A1AR [6]. In turn, `Nc1cnc2ccccc2c1` [Compound 5] showed an inhibition constant (Ki) at human A3AR [3] greater than 10000 µM. Take `Nc1nc2ccc(Cl)cc2c2nc(-c3ccco3)nn12` [CGS 15943, reference compound]: on human A3AR [3], affinity was put at a Ki of 0.00661 µM. Consider `COC(=O)C1Cc2ccccc2N1` (centres unmarked) [MO 00997], for which, on human A3AR [1] (setting [9]), the affinity corresponds to a Ki of 0.794 µM. Also, the remaining binding at 1000 µM on human A3AR [1] stood at 31.1%.

In the case of `Cc1cc(N)c(N)cc1Cl` [TL 00770], at human A3AR [1] (setting [9]), the Ki was 1 µM. For the same compound, the remaining binding at 1000 µM on human A3AR [1] is 23.5%. The like results for `Cc1cc2cc(N)ccc2[nH]1` [AC 34875] were, in that order, 1.2 µM and 10.4%.

With `CNC(=O)[C@H]1O[C@@H](n2cnc3c(NCc4cccc(I)c4)ncnc32)[C@H](O)[C@@H]1O` [IB-MECA], the “A3-YFP internalization / agonist action” value with A3-YFP is “caused A3-YFP internalisztion”.

Regarding `O=C(Nc1cnc2ccccc2c1)c1ccccc1` [Compound 4], the inhibition constant Ki on human A3AR [3] is greater than 100 µM.

`Nc1ccc2[nH]ncc2c1` [AC 30454] showed a Ki at human A3AR [1] (setting [9]) of 3.16 µM. Besides, the remaining binding at 1000 µM on human A3AR [1] was found to be 13%.

As for `COc1ccc(-n2nc3c(NC(=O)c4ccccc4)nc4ccccc4n3c2=O)cc1` [Compound 1], the Ki on human A1AR [7] is 1.17 µM; on human A3AR [3] it was 0.00309 µM. In addition, the Kb at human A3AR [4] was 0.00166 µM.
